The source of these data is patent US12310964B2, “Compositions and methods for the treatment of Lowe Syndrome” (Purdue Research Foundation, priority 2020, dated 2025).

Holding throughout (format): cell-based, Human
Data set [1] relates to LS patient cells. Briefly: Cell adhesion by time-lapse microscopy. As to the method: (§1) Human dermal fibroblasts were treated as described above, seeded on fibronectin-coated LabTek chambers, and allowed to attach and spread. Cells were imaged at intervals of 10 min after seeding for 8 h using 20× objective in a Zeiss Axiovert inverted microscope. Number of detaching cells was quantified every 10 min up to the first hour by using the cell counter tool in ImageJ (NIH). To determine spreading kinetics, individual cells were tracked in each time lapse image and were scored from 1-5 based on general cell morphology. Briefly, cells that were just attached and looked circular with no protrusions or visible extensions received a score of 1. Cells with needle-like (filopodia) projections were scored 2, cells with lamellopodia-like extensions were scored 3, cells with more extended lamellopodia-like extensions and increased cell area were given a score of 4, and a further increase in cell area, often accompanied by isotropic spread morphology, was given a score of 5.
Alternatively, cells were treated as described above and allowed to attach on fibronectin-coated dishes. Immediately after seeding, the cells were imaged with a 10× objective simultaneously using up to 3 Cytosmart Imaging Systems (Lonza, Basel, Switzerland) at intervals of 30 s for 2 h. Number of cells attached was quantified every 10 min up to the first hour using the Cell Counter tool in ImageJ software (NIH). […]

Data set [2] concerns Normal fibroblasts. Briefly: Cell spreading assay after a predetermined time-point (cell area). The following applies: 30 min after seeding on fibronectin. As to the method: (§2) Human dermal fibroblasts (12 h after seeding) were treated with the indicated drug (or vehicle) in 0.1% serum for the indicated time. After drug treatment, the cells were lifted with 20 mM EDTA (ethylenediaminetetraacetic acid) in PBS (phosphate-buffered saline), pelleted at 300×g for 5 min and resuspended in 1% serum in the presence of drug or vehicle. Cell suspensions were then set in a rotator for 1 hour before seeding them on fibronectin-coated coverslips for 30 min, undisturbed, to allow attachment and spreading. After spreading, coverslips were gently rinsed with PBS and fixed in 4% formaldehyde for 10 min at room temperature. Cells were stained with rhodamine—phalloidin and imaged by epifluorescence microscopy. At least 50 cells were quantified per experiment by tracing and measuring cell areas by using the magic wand tool in ImageJ software (National Institutes of Health (NIH), Bethesda, MD, USA).
(§3) Cell spreading on fibronectin-coated surfaces of cells treated with RhoA modulators in comparison to untreated cells was observed. Cells were fixed and stained with fluorescently labeled-phalloidin after 30 min spreading time at 37° C. Following imaging, cell area measurements were performed.

The subject of data set [3] is LS patient cells. The description is as above. On the procedure: Two approaches to monitor cell spreading were used: after a predetermined time-point and at multiple time points.
1) Spreading after a Predetermined Time-Point.
as §2, §3

The subject of data set [4] is Rac1. Nature of the data set: Rac1 FRET biosensor assay. The following applies: LS cells, FRET-based biosensor. As to the method:
FIG. 9. […] LS patient cells expressing Rac1 FRET probe were treated with vehicle or rosuvastatin, imaged and FRET signals analyzed by the ratiometric method (*p<0.05, Wilcoxon test).

For data set [5], the system named is Focal Adhesion Kinase (FAK). Briefly: Focal adhesion immunofluorescence (phospho-FAK), confocal microscopy. The conditions noted are these: LS cells. On the procedure: Cells were prepared as described under “Spreading after a pre-determined time point.” After fixation, indirect immunofluorescence was performed using antibodies against phospho-FAK (Y397) or vinculin. Briefly, cells were gently washed with PBS, fixed with 4% formaldehyde-PBS for 10 min and permeabilized using 0.25% Triton-X 100 in PBS for 20 min, followed by blocking with 5% BSA (bovine serum albumin) in PBS for 30 min. Cells were also immuno-stained with Phalloidin-FITC and DAPI to label the actin cytoskeleton and nucleus, respectively. Images were acquired at the Indiana O'Brien Center for Biological Microscopy (ICBM; Division of Nephrology, Indiana University School of Medicine, Indianapolis, IN, USA) using an Olympus IX81 inverted confocal microscope. A 60× Oil objective (NA 1.42) was used and randomly selected fields were imaged using constant voltage, gain and intensity for the different groups, as well as uniform step size (0.19 μm) using sequential image collection mode.

The subject of data set [6] is LS patient cells. Briefly: Viability/toxicity assessment (cell counting, morphology, MTT). As to the method:
Cells were incubated with the indicated drugs for the specified times at different concentrations as described in low serum (0.1%) media to avoid substantial protein-mediated drug sequestration. In addition to cell counting post-treatment, a sample of cells seeded on fibronectin-coated coverslips was fixed and stained with fluorescein isothiocyanate (FITC)-phalloidin and DAPI (4′,6-diamidino-2-phenylindole) for cell morphology inspection. Viability was monitored by performing MTT (3-(4,5-dimethylthiazol-2-yl)-2,5-diphenyltetrazolium bromide) assays as follows: Following treatment of cells (in triplicates) with indicated drugs at different concentrations for specified times, media were aspirated and replaced with MTT solution (freshly prepared at 0.5 mg/ml in complete media) and incubated for 1.5 h. Additionally, a blank control with only MTT reagent containing no cells was also prepared. Following incubation, solution was aspirated and MTT was immediately solubilized using 1 mL DMSO (dimethylsulfoxide) (per well) by gentle pipetting. Absorbance values of solubilized MTT solution from the different wells were measured at 570 nm using a spectrophotometer.

Data set [7] has as its system HMG-CoA reductase in LS cells. Nature of the data set: Cholesterol uptake assay. The conditions noted are these: LS patient fibroblasts in Cho-free media. As to the method: Assay for cholesterol uptake was performed using cholesterol-free media and an AbCam kit (ab236212; Cambridge, UK) according to manufacturer's instructions.
For data set [8], the system named is normal cells. Nature of the data set: Ciliogenesis assay. On the procedure:
Cells were seeded on glass cover slips and grown for 24 h in complete media. Then media was replaced by 0.1% serum DMEM (starvation media) containing vehicle or the drug to induce ciliogenesis for the indicated times. Cells were then fixed in 4% formaldehyde—PBS for 10 min and immuno-labeled with anti-acetylated tubulin antibody (see Table 2). At least 50 cells were imaged for every experiment and experiments were repeated at least thrice. The fraction of cells displaying cilia and cilia length were determined as described previously (Coon et al. (2012), supra).

The subject of data set [9] is LS patient cells. Nature of the data set: Spreading at multiple time points (spreading score, time-lapse). The following applies: LS patient cells treated with rosuvastatin; non-linear regression of FIG. 4 data. On the procedure:
as §1
A von Bertalanffy logistic model was adopted to fit the data presented in FIG. 3A (adhesion) and FIG. 4 (spreading) as shown in Table 3. […] The associated error ΔK was estimated using standard rules of error propagation based on the determined T0.5 error (ΔT0.5), according to ΔK=K(ΔT0.5/T0.5).

With `CC(C)c1nc(N(C)S(C)(=O)=O)nc(-c2ccc(F)cc2)c1/C=C/[C@@H](O)C[C@@H](O)CC(=O)O` [rosuvastatin], the “LS cell adhesion defect” value in data set [1] (LS cells on fibronectin-coated surfaces) is reported as “alleviated the LS cell adhesion defect”. Moreover, in data set [1] (LS patient cells treated with rosuvastatin, fibronectin-coated surfaces, non-linear regression of FIG. 3A data), the “Adhesion, Process Continuous Rate” value is given as 35 ± 5 min^−1 × 10^3. Further, in data set [2], the “cell spreading of normal cells” value is “No obvious effect”. In data set [3] (100 μM for 1 h), the “LS spreading phenotype alleviation, acute dose” value is “Phenotype alleviation was observed”. Further, the “cell spreading / membrane remodeling phenotype in cells from another LS patient” value in data set [3] (LS2 cells, FIG. 8A) is recorded as “ameliorated”. In [3] (LS patient fibroblasts, 30 min after seeding on fibronectin), the “LS cell spreading phenotype” value is “mitigated to a certain extent the LS spreading phenotype”. Also, the “ranking of statins: rescue effect over needed dose and toxicity” value in data set [3] (LS spreading defects) is recorded as “produced the best results”. Moreover, the Rac1 activation levels result in data set [4] was “raised”. For the same molecule, the “peripherally activated FAK (phospho-Tyr397) abnormality” value in data set [5] was “alleviated”. Moreover, the “toxicity, chronic exposure” value in data set [6] (10 μM for ≥72 h) was “relatively innocuous”. For the same molecule, the “toxicity, acute dose” value in [6] (100 μM, exposure time≥15 h) was “induced toxicity”. In [6] (LS cells after exposure to statins), the “toxicity (viability and stress-induced changes in morphology)” value was “minimal toxicity”. The “uptake of fluorescently labeled Cho (inhibition of cholesterol biosynthesis)” value in data set [7] is on record as “less acute inhibition of cholesterol biosynthesis”. Further, the “ciliogenesis by normal cells” value in [8] was “No obvious effect”. Further, the “Spreading, Process Continuous Rate” value in data set [9] is 24 ± 2 min^−1 × 10^3.
